Data taken from patent publication US9445590B2, “Fungicidal composition comprising a pyridylethylbenzamide derivative and a compound capable of inhibiting the transport of electrons of the respiratory chain in phytopathogenic fungal organisms” (BAYER INTELLECTUAL PROPERTY GMBH, priority 2004, dated 2016).

Key:
[1] = test system: Botrytis cinerea; assay: Efficacy against Botrytis cinerea on gherkin plants (preventive spray); type: in vivo; conditions: grading 5 to 7 days after contamination
Method: (§1) The active ingredients tested are prepared by potter homogenisation in a mixture of acetone/tween/water. This suspension is then diluted with water to obtain the desired active material concentration.
(§2) Gherkin plants (Petit vert de Paris variety) in starter cups, sown on a 50/50 peat soil-pozzolana substrate and grown at 18-20° C., are treated at the cotyledon Z11 stage by spraying with the aqueous suspension described above. Plants, used as controls, are treated with an aqueous solution not containing the active material.
After 24 hours, the plants are contaminated by depositing drops of an aqueous suspension of Botrytis cinerea spores (150,000 spores per ml) on upper surface of the leaves. The spores are collected from a 15-day-old culture and are suspended in a nutrient solution composed of: • 20 g/L of gelatine • 50 g/L of cane sugar • 2 g/L of NH4NO3 • 1 g/L of KH2PO4
The contaminated gherkin plants are settled for 5/7 days in a climatic room at 15-11° C. (day/night) and at 80% relative humidity. Grading is carried out 5 to 7 days after contamination, in comparison with the control plants.
as §2, with “Z 11” for “Z11”
(§3) The formulated compounds are diluted with water to obtain the desired active material concentration.

[2] = test system: Pyrenophora teres; assay: Efficacy against Pyrenophora teres on barley plants (preventive spray); type: in vivo; conditions: 288 h, grading 12 days after contamination
Method: as §1
as §2, with “Barley” for “Gherkin”, “(Express” for “(Petit vert de Paris”, “12°” for “18-20°”, “1-leaf” for “cotyledon Z11”, “stage (10 cm tall)” for “stage”
After 24 hours, the plants are contaminated by spraying them with an aqueous suspension of Pyrenophora teres spores (12 000 spores per ml). The spores are collected from a 12-day-old culture. The contaminated barley plants are incubated for 24 hours at about 20° C. and at 100% relative humidity, and then for 12 days at 80% relative humidity.
Grading (% of efficacy) is carried out 12 days after the contamination, in comparison with the control plants.

[3] = test system: Alternaria brassicae; assay: Efficacy against Alternaria brassicae (in vitro), growth on PDA medium; type: cell-based; conditions: radial growth after 14 days
Method: The growth of Alternaria brassicae was followed on PDA medium containing the compounds alone or in mixtures. The PDA medium is prepared by mixing 39 grams of PDA (Merck) in 1 litter of demineralised water. The medium is sterilized by autoclave 15 minutes at 121° C. The compounds are dissolved in acetone and added to the medium before pouring it in Petri dishes. After medium drying, the fungus is inoculated on the medium and allowed to growth at 19° C. The percentage of efficacy is noted after 14 days of growth (measurement of the radial growth) of the fungus in comparison with a control. […]

[4] = test system: Sphaerotheca fuliginea; assay: Efficacy against Sphaerotheca fuliginea on gherkin plants (preventive spray); type: in vivo; conditions: Podosphaera fuliginea, 504 h, grading 21 days after contamination
Method: as §1
as §2, with “(Vert petit” for “(Petit vert”, “20° C./23°” for “18-20°”, “2-leaves” for “cotyledon Z11”
After 24 hours, the plants are contaminated by spraying them with an aqueous suspension of Sphaerotheca fuliginea spores (100 000 spores per ml). The spores are collected from a contaminated plants. The contaminated gherkin plants are incubated at about 20° C./25° C. and at 60/70% relative humidity.
Grading (% of efficacy) is carried out 21 days after the contamination, in comparison with the control plants.

[5] = test system: Erysiphe graminis f. sp. tritici; assay: Efficacy against Erysiphe graminis f. sp. tritici on wheat plants (preventive spray); type: in vivo; conditions: grading 7 to 14 days after contamination
Method: as §1
(§4) Wheat plants (Audace variety) in starter cups, sown on 50/50 peat soil-pozzolana substrate and grown at 12° C., are treated at the 1-leaf stage (10 cm tall) by spraying with the aqueous suspension described above.
(§5) Plants, used as controls, are treated with an aqueous solution not containing the active material.
After 24 hours, the plants are contaminated by dusting them with Erysiphe graminis f. sp. tritici spores, the dusting being carried out using diseased plants.
Grading is carried out 7 to 14 days after the contamination, in comparison with the control plants.
as §3
as §4, with “above. Plants, used as controls, are treated with an aqueous solution not containing the active material.” for “above.”

[6] = test system: Alternaria brassicae; assay: Efficacy against Alternaria brassicae on radish plants (preventive spray); type: in vivo; conditions: Example 13, dose 111 ppm, grading 6 to 7 days after contamination
Method: as §3
Radish plants (Pernot variety) in starter cups, sown on a 50/50 peat soil-pozzolana substrate and grown at 18-20° C., are treated at the cotyledon stage by spraying with the aqueous suspension described above.
as §5
After 24 hours, the plants are contaminated by spraying them with an aqueous suspension of Alternaria brassicae spores (40,000 spores per cm^3). The spores are collected from a 12-13-day-old culture.
The contaminated radish plants are incubated for 6-7 days at about 18° C., under a humid atmosphere.
Grading is carried out 6 to 7 days after the contamination, in comparison with the control plants.

For `CC(C)CC(C)c1sccc1NC(=O)c1cn(C)nc1C(F)(F)F` (centres unmarked) [Compound D, N-[2-(1,3-dimethylbutyl)-thiophen-3-yl]1-methyl-3-(trifluoromethyl)-1H-pyrazole-4-carboxamide], the Emax at 250 ppm ([1]; Botrytis cinerea, Example 14, dose 250 ppm, formulated compounds) was 60%.
`CNC(=O)C(=NOC)c1ccccc1Oc1ncnc(Oc2cccc(Cl)c2C)c1F` [Compound A, 2-{2-[6-(3-Chloro-2-methylphenoxy)-5-fluoro-pyrimidin-4-yloxy]-phenyl}2-methoxyimino-N-methylacetamide] gave an Emax at 37 ppm ([1]; Botrytis cinerea, Example 8, dose 37 ppm) of 0%, an Emax at 111 ppm ([1]; Botrytis cinerea, Example 8, dose 111 ppm) of 0% and an Emax at 333 ppm ([1]; Botrytis cinerea, Example 8, dose 333 ppm) of 0%.
With `CON=C(C(=O)OC)c1ccccc1CON=C(C)c1cccc(C(F)(F)F)c1` [Trifloxystrobin, trifloxystrobin] the Emax at 4 g/ha ([2]; Example 1, dose 4 g/ha) was 50%, the Emax at 8 g/ha ([2]; Example 1, dose 8 g/ha) was 70% and the Emax at 0.025 ppm ([3]; Alternaria brassicae, 336 h, Example 2, dose 0.025 ppm) was 45%. For the same compound, the Emax at 0.05 ppm ([3]; Alternaria brassicae, 336 h, Example 2, dose 0.05 ppm) was 44%, the Emax at 0.1 ppm ([3]; Alternaria brassicae, 336 h, Example 2, dose 0.1 ppm) was 45% and the Emax at 0.25 ppm ([3]; Alternaria brassicae, 336 h, Example 2, dose 0.25 ppm) was 53%. For the same compound, the Emax at 0.5 ppm ([3]; Alternaria brassicae, 336 h, Example 2, dose 0.5 ppm) was 60%, the Emax at 1 ppm ([3]; Alternaria brassicae, 336 h, Example 2, dose 1 ppm) was 65% and the Emax at 2.5 ppm ([3]; Alternaria brassicae, 336 h, Example 2, dose 2.5 ppm) was 71%.
In the case of `CO/C=C(/C(=O)OC)c1ccccc1COc1cccc(C(F)(F)F)n1` [Picoxystrobin, picoxystrobin, reference compound], the “% Efficacy” value ([1]; Example 6, dose 37 ppm) is reported as 0%, the “% Efficacy” value ([1]; Example 6, dose 111 ppm) is reported as 35% and the “% Efficacy” value ([1]; Example 6, dose 333 ppm) is reported as 40%.
Compound `O=C(Nc1ccccc1-c1ccc(Cl)cc1)c1cccnc1Cl` [Boscalid, boscalid, reference compound] has an Emax at 4 ppm ([4]; Example 11, dose 4 ppm) of 0%, an Emax at 8 ppm ([4]; Example 11, dose 8 ppm) of 10% and an Emax at 15 ppm ([4]; Example 11, dose 15 ppm) of 45%.
Compound `Cn1cc(C(=O)Nc2ccc(F)cc2-c2ccc(Cl)c(Cl)c2)c(C(F)F)n1` [Compound C, N-(3′,4′-dichloro-5-fluorobiphenyl-2-yl)-3-(difluoro-methyl)-1-methyl-1H-pyrazole-4-carboxamide] has an Emax at 31.2 ppm ([4]; Example 12, dose 31.2 ppm) of 0% and an Emax at 62.5 ppm ([4]; Example 12, dose 62.5 ppm) of 0%.
With `CO/C=C(/C(=O)OC)c1ccccc1Oc1cc(Oc2ccccc2C#N)ncn1` [Azoxystrobin, azoxystrobin] the “% Efficacy” value ([3]; Example 3, dose 0.025 ppm) was 38%, the “% Efficacy” value ([3]; Example 3, dose 0.05 ppm) was 41% and the “% Efficacy” value ([3]; Example 3, dose 0.1 ppm) was 47%. The “% Efficacy” value ([3]; Example 3, dose 0.25 ppm) was 56%, the “% Efficacy” value ([3]; Example 3, dose 0.5 ppm) was 47% and the “% Efficacy” value ([3]; Example 3, dose 1 ppm) was 48%. For the same compound, the “% Efficacy” value ([3]; Example 3, dose 2.5 ppm) was 49%.
`CNC(=O)/C(=N/OC)c1ccccc1COc1cc(C)ccc1C` [Dimoxystrobin, dimoxystrobin, reference compound] was tested, and the “% Efficacy” value ([5]; Example 9, dose 62.5 g/ha, formulated compounds) was 0%.
`CO/N=C(/C(=O)OC)c1ccccc1COc1ccccc1C` [Kresoxim-methyl, kresoxim-methyl, reference compound] showed an Emax at 37 ppm ([1]; Botrytis cinerea, Example 5, dose 37 ppm) of 0%, an Emax at 111 ppm ([1]; Botrytis cinerea, Example 5, dose 111 ppm) of 0% and an Emax at 333 ppm ([1]; Botrytis cinerea, Example 5, dose 333 ppm) of 0%.
`Cc1nn(C)c(F)c1C(=O)Nc1ccccc1C(C)CC(C)C` (centres unmarked) [Compound B, N-[2-(1,3-dimethyl-butyl)-phenyl]-5-fluoro-1,3-dimethyl-1H-pyrazole-4-carboxamide] showed an Emax at 4 ppm ([1]; Botrytis cinerea, Example 10, dose 4 ppm) of 32%.
`CSC1=N[C@@](C)(c2ccccc2)C(=O)N1Nc1ccccc1` [Fenamidone, fenamidone, reference compound] was tested, and the Emax at 111 ppm [6] was 55%.
`CO/N=C(/C1=NOCCO1)c1ccccc1Oc1ncnc(Oc2ccccc2Cl)c1F` [Fluoxastrobin, fluoxastrobin, reference compound] showed an Emax at 15 ppm ([5]; Blumeria graminis, Example 4, dose 15 ppm) of 20%.
Work on `COC(=O)N(OC)c1ccccc1COc1ccn(-c2ccc(Cl)cc2)n1` [Pyraclostrobin, pyraclostrobin, reference compound] yielded an Emax at 37 ppm ([1]; Botrytis cinerea, Example 7, dose 37 ppm) of 0%, an Emax at 111 ppm ([1]; Botrytis cinerea, Example 7, dose 111 ppm) of 0% and an Emax at 333 ppm ([1]; Botrytis cinerea, Example 7, dose 333 ppm) of 0%.
